Test results: PMC7301889 (Journal of computer-aided molecular design, 2019)

Assay: Potentiometric
Assay type: physicochemical
Details: 1-octanol/water biphasic system, log P (mean ± SEM), octanol / ISA water, neutral species, 25.0 ± 0.5 °C, 150 mM KCl, mean ± SEM of at least three independent replicates
For `FC(F)(F)c1cccc(Nc2ncnc3ccccc23)c1` [SM02, c1ccc2c(c1)c(ncn2)Nc3cccc(c3)C(F)(F)F], the logP was 4.09 ± 0.03. Work on `Clc1ccc(CNc2ncnc3ccccc23)cc1` [SM04, c1ccc2c(c1)c(ncn2)NCc3ccc(cc3)Cl] yielded a logP of 3.98 ± 0.03. In the case of `Cc1ccc2[nH]c(=O)c(CC(=O)O)c(-c3ccccc3)c2c1` [SM08, Cc1ccc2c(c1)c(c(c(=O)[nH]2)CC(=O)O)c3ccccc3], the logP is reported as 3.1 ± 0.03. `COc1cccc(Nc2ncnc3ccccc23)c1` [SM09, COc1cccc(c1)Nc2c3ccccc3ncn2.Cl] showed a logP of 3.03 ± 0.07. Work on `Nc1ncnc2c1cnn2-c1ccccc1` [SM11, c1ccc(cc1)n2c3c(cn2)c(ncn3)N] yielded a logP of 2.1 ± 0.04. With `Clc1cccc(Nc2ncnc3ccccc23)c1` [SM12, c1ccc2c(c1)c(ncn2)Nc3cccc(c3)Cl.Cl] the logP was 3.83 ± 0.03. Molecule `COc1cc2ncnc(Nc3cccc(C)c3)c2cc1OC` [SM13, Cc1cccc(c1)Nc2c3cc(c(cc3ncn2)OC)OC] has a logP of 2.92 ± 0.04. With `Nc1ccc2c(c1)ncn2-c1ccccc1` [SM14, c1ccc(cc1)n2cnc3c2ccc(c3)N] the logP was 1.95 ± 0.03. Work on `Oc1ccc(-n2cnc3ccccc32)cc1` [SM15, c1ccc2c(c1)ncn2c3ccc(cc3)O] yielded a logP of 3.07 ± 0.03. Work on `O=C(Nc1ccncc1)c1c(Cl)cccc1Cl` [SM16, c1cc(c(c(c1)Cl)C(=O)Nc2ccncc2)Cl] yielded a logP of 2.62 ± 0.01.
